Tested on: 596521-263-R-J1-PDC complex spheroid growth
Experiment: Anticancer human tumor 596521-263-R-J1-PDC patient-derived soft tissue sarcoma cell line growth inhibition [Asc]
Details: for IC50: curve of first compound; for viability, T/C: stronger effect = lower value
Outline: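 Spheroid model: tumor line + HUVEC + hMSC. Single agents and combinations; top conc. at/near clinical Cmax (10 microM if undetermined), half-log dilutions. DMSO stocks at 800-fold test concentration.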

[1] = second compound 0.0316 µM, first compound 0.0316 µM
[2] = second compound 0.0316 µM, first compound 0.1 µM
[3] = second compound 0.0316 µM, first compound 0.316 µM
[4] = second compound 0.0316 µM, first compound 1 µM
[5] = second compound 0.1 µM, first compound 0.0316 µM
[6] = second compound 0.1 µM, first compound 0.1 µM
[7] = second compound 0.1 µM, first compound 0.316 µM
[8] = second compound 0.1 µM, first compound 1 µM
[9] = second compound 0.316 µM, first compound 0.0316 µM
[10] = second compound 0.316 µM, first compound 0.1 µM
[11] = second compound 0.316 µM, first compound 0.316 µM
[12] = second compound 0.316 µM, first compound 1 µM
[13] = second compound 1 µM, first compound 0.0316 µM
[14] = second compound 1 µM, first compound 0.1 µM
[15] = second compound 1 µM, first compound 0.316 µM
[16] = second compound 1 µM, first compound 1 µM
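Further: spheroids exposed to compounds for 7 days.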

In the case of `CCN1CCN(Cc2ccc(Nc3ncc(F)c(-c4cc(F)c5nc(C)n(C(C)C)c5c4)n3)nc2)CC1` + CNC(C)C(=O)NC1CN(S(=O)(=O)c2cccc(S(=O)(=O)N3CCC4CCC(C(=O)NC(c5ccccc5)c5ccccc5)N4C(=O)C(NC(=O)C(C)NC)C3)c2)CCC2CCC(C(=O)NC(c3ccccc3)c3ccccc3)N2C1=O, the IC50 (second compound 0.00316 µM) is reported as greater than 1000 nM, the IC50 (second compound 0.01 µM) is reported as greater than 1000 nM and the IC50 (second compound 0.0316 µM) is reported as greater than 1000 nM. For the same compound, the IC50 (second compound 0.1 µM) was greater than 1000 nM, the IC50 (second compound 0.316 µM) was greater than 1000 nM and the IC50 (second compound 1 µM) was greater than 1000 nM. It also gave a viability, T/C (second compound 0.00316 µM, first compound 0.00316 µM) of 90.8%, a viability, T/C (second compound 0.00316 µM, first compound 0.01 µM) of 81.4% and a viability, T/C (second compound 0.00316 µM, first compound 0.0316 µM) of 77%. The viability, T/C (second compound 0.00316 µM, first compound 0.1 µM) was 79.8%, the viability, T/C (second compound 0.00316 µM, first compound 0.316 µM) was 81.7% and the viability, T/C (second compound 0.00316 µM, first compound 1 µM) was 74.1%. The viability, T/C (second compound 0.01 µM, first compound 0.00316 µM) was 98.6%, the viability, T/C (second compound 0.01 µM, first compound 0.01 µM) was 87.5% and the viability, T/C (second compound 0.01 µM, first compound 0.0316 µM) was 81.2%. For the same compound, the viability, T/C (second compound 0.01 µM, first compound 0.1 µM) was 84.6%, the viability, T/C (second compound 0.01 µM, first compound 0.316 µM) was 81.6% and the viability, T/C (second compound 0.01 µM, first compound 1 µM) was 91.3%. It also gave a viability, T/C (second compound 0.0316 µM, first compound 0.00316 µM) of 79.9%, a viability, T/C (second compound 0.0316 µM, first compound 0.01 µM) of 83.4% and a viability, T/C [1] of 79%. The viability, T/C [2] was 76.8%, the viability, T/C [3] was 93.5% and the viability, T/C [4] was 76%. For the same compound, the viability, T/C (second compound 0.1 µM, first compound 0.00316 µM) was 73%, the viability, T/C (second compound 0.1 µM, first compound 0.01 µM) was 78.8% and the viability, T/C [5] was 76%. The viability, T/C [6] was 86%, the viability, T/C [7] was 79.7% and the viability, T/C [8] was 84.8%. The viability, T/C (second compound 0.316 µM, first compound 0.00316 µM) was 75.4%, the viability, T/C (second compound 0.316 µM, first compound 0.01 µM) was 78.1% and the viability, T/C [9] was 74.8%. It also gave a viability, T/C [10] of 77.3%, a viability, T/C [11] of 84.7% and a viability, T/C [12] of 78.3%. The viability, T/C (second compound 1 µM, first compound 0.00316 µM) was 70.4%, the viability, T/C (second compound 1 µM, first compound 0.01 µM) was 76% and the viability, T/C [13] was 72.3%. The viability, T/C [14] was 70.7%, the viability, T/C [15] was 72.7% and the viability, T/C [16] was 69.4%.
`O=C(c1cc(Cc2n[nH]c(=O)c3ccccc23)ccc1F)N1CCN(C(=O)C2CC2)CC1` + Cc1c(S(C)(=O)=O)c(-c2cc(F)cc(N3CCN(c4ccc(NS(=O)(=O)c5ccc(NC(CCN6CCC(C(=O)OCCCP(=O)(O)O)CC6)CSc6ccccc6)c(S(=O)(=O)C(F)(F)F)c5)cc4)CC3)c2)c(-c2ccc(Cl)cc2)n1C(C)C showed an IC50 (second compound 0.0316 µM) greater than 10000 nM, an IC50 (second compound 0.1 µM) greater than 10000 nM and an IC50 (second compound 0.316 µM) of 8230 nM. For the same compound, the IC50 (second compound 1 µM) was 5330 nM, the IC50 (second compound 3.16 µM) was 1380 nM and the IC50 (second compound 10 µM) was less than 31.6 nM. For the same compound, the viability, T/C [1] was 100%, the viability, T/C [2] was 95.7% and the viability, T/C [3] was 88.8%. It also gave a viability, T/C [4] of 89.3%, a viability, T/C (second compound 0.0316 µM, first compound 3.16 µM) of 85.7% and a viability, T/C (second compound 0.0316 µM, first compound 10 µM) of 59.4%. It also gave a viability, T/C [5] of 96.3%, a viability, T/C [6] of 102% and a viability, T/C [7] of 86.4%. The viability, T/C [8] was 98.2%, the viability, T/C (second compound 0.1 µM, first compound 3.16 µM) was 76.2% and the viability, T/C (second compound 0.1 µM, first compound 10 µM) was 54%. The viability, T/C [9] was 94%, the viability, T/C [10] was 92.8% and the viability, T/C [11] was 79.5%. The viability, T/C [12] was 85.9%, the viability, T/C (second compound 0.316 µM, first compound 3.16 µM) was 61.2% and the viability, T/C (second compound 0.316 µM, first compound 10 µM) was 47.5%. It also gave a viability, T/C [13] of 78.8%, a viability, T/C [14] of 80.1% and a viability, T/C [15] of 68.3%. It also gave a viability, T/C [16] of 71.2%, a viability, T/C (second compound 1 µM, first compound 3.16 µM) of 61% and a viability, T/C (second compound 1 µM, first compound 10 µM) of 37.7%. The viability, T/C (second compound 3.16 µM, first compound 0.0316 µM) was 61%, the viability, T/C (second compound 3.16 µM, first compound 0.1 µM) was 63.8% and the viability, T/C (second compound 3.16 µM, first compound 0.316 µM) was 55.8%. The viability, T/C (second compound 3.16 µM, first compound 1 µM) was 56.5%, the viability, T/C (second compound 3.16 µM, first compound 3.16 µM) was 35.2% and the viability, T/C (second compound 3.16 µM, first compound 10 µM) was 22.1%. It also gave a viability, T/C (second compound 10 µM, first compound 0.0316 µM) of 52.7%, a viability, T/C (second compound 10 µM, first compound 0.1 µM) of 46.4% and a viability, T/C (second compound 10 µM, first compound 0.316 µM) of 44.8%. It also gave a viability, T/C (second compound 10 µM, first compound 1 µM) of 43.4%, a viability, T/C (second compound 10 µM, first compound 3.16 µM) of 36.3% and a viability, T/C (second compound 10 µM, first compound 10 µM) of 16.5%.
